Data set [1] can be described thus: physchem. The following applies: octanol/water.
Data set [2] is described as follows: Dissociation constant, pKa of the compound at pH 7.4 by UV spectrophotometric titration. The class given is physicochemical.
A short description of data set [3]: physchem. The following applies: buffer, pH 7.4.
A short description of data set [4]: Aqueous solubility of the compound in phosphate buffer at pH 7.4. The data set is classed as physicochemical.

Structures are written as SMILES.

Usually logP stands for the decadic logarithm of the partition coefficient of the neutral form, usually between octanol and water. Low readings indicate a more hydrophilic compound, high ones a more lipophilic compound. What is called pKa is the pH at which an ionisable group is half protonated. A higher pKa goes with a weaker acid or stronger base. As a reminder, the logD is the decadic logarithm of the distribution of all forms, ionised or not, between an organic phase and buffer at a given pH. Consider `COc1cc(N2CC3CNCC(C2)O3)ccc1Nc1ncc(Cl)c(-c2cnc3ccccn23)n1`, for which, in “physchem [1]”, the logP worked out at 3.6. Also, the pKa in data set [2] turned out to be 8.7. In the data set “physchem [3]”, this compound showed a logD of 2.3.
As to `COc1cc(N2CC3CN(CCO)CC(C2)O3)ccc1Nc1ncc(Cl)c(-c2cnc3ccccn23)n1`, the pKa in data set [2] was found to be 8.4.
The compound `COc1cc(N2CC3COCC(C2)N3)ccc1Nc1ncc(Cl)c(-c2cnc3ccccn23)n1` had a logP in the data set “physchem [1]” of 3.1. Moreover, the pKa in data set [2] was 6.7. In “physchem [3]”, this compound had a logD of 3.
As usually defined, the solubility is the dissolved amount per volume that the medium holds. High values mean a readily soluble substance, low ones a poorly soluble substance. As to `COc1cc(N2CCN(S(C)(=O)=O)CC2)ccc1Nc1ncc(Cl)c(-c2cnc3ccccn23)n1`, in data set [4], the solubility is under 0.6 µM.

The record behind these values is ChEMBL document CHEMBL1806498, “Novel imidazo[1,2-a]pyridine based inhibitors of the IGF-1 receptor tyrosine kinase: optimization of the aniline” (Bioorg Med Chem Lett, 2011).
